{"source": "the supplement of paper PMC10307832", "assay_in_all_cases": "relative viability (nuclei count vs DMSO), 5 days (fraction); higher = more cells survive", "key": {"[1]": {"system": "ABC-1", "method_in_brief": "(§1)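 Lung cancer cell lines in 1536-well plates got either a single drug or a fixed anchor-drug dose together with five library-drug doses (not always all listed) in √10 steps, by pin tool, on the day after seeding. Nuclei were counted after 5 days, and relative viability is the treated-to-vehicle ratio of nuclei counts. Values are medians of duplicate plates.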"}, "[2]": {"system": "NCI-H23", "method_in_brief": "as §1"}, "[3]": {"system": "NCI-H2009", "method_in_brief": "as §1"}, "[4]": {"system": "PC-14", "method_in_brief": "as §1"}, "[5]": {"system": "UMC-11", "method_in_brief": "as §1"}, "[6]": {"system": "LCLC-103H", "method_in_brief": "as §1"}, "[7]": {"system": "SK-MES-1", "method_in_brief": "as §1"}, "[8]": {"system": "HCC-827", "method_in_brief": "as §1"}, "[9]": {"system": "NCI-H661", "method_in_brief": "as §1"}, "[10]": {"system": "LXF-289", "method_in_brief": "as §1"}, "[11]": {"system": "HCC-366", "method_in_brief": "as §1"}, "[12]": {"system": "NCI-H1666", "method_in_brief": "as §1"}, "[13]": {"system": "NCI-H1975", "method_in_brief": "as §1"}, "[14]": {"system": "PC-3 [JPC-3]", "method_in_brief": "as §1"}, "[15]": {"system": "H3255", "method_in_brief": "as §1"}, "[16]": {"system": "NCI-H1437", "method_in_brief": "as §1"}, "[17]": {"system": "NCI-H2087", "method_in_brief": "as §1"}, "[18]": {"system": "NCI-H2085", "method_in_brief": "as §1"}, "[19]": {"system": "LC-2-ad", "method_in_brief": "as §1"}, "[20]": {"system": "COR-L23", "method_in_brief": "as §1"}, "[21]": {"system": "NCI-H2228", "method_in_brief": "as §1"}, "[22]": {"system": "HCC-15", "method_in_brief": "as §1"}}}
{"smiles": "Cc1csc(=NC2CCCCC2)n1/N=C/c1ccc(O)c(O)c1O", "note": "[MIM1] + C[C@@H](Oc1cc(-c2cnn(C3CCNCC3)c2)cnc1N)c1c(Cl)ccc(F)c1Cl [Crizotinib] (partner 1 µM)", "values": [{"measurement": "relative viability", "setting": "[1]; first compound 0.2 µM", "value": 1.08}, {"measurement": "relative viability", "setting": "[1]; first compound 0.6325 µM", "value": 1.22}, {"measurement": "relative viability", "setting": "[1]; first compound 2 µM", "value": 0.846}, {"measurement": "relative viability", "setting": "[1]; first compound 6.325 µM", "value": 0.286}, {"measurement": "relative viability", "setting": "[1]; first compound 20 µM", "value": 0.226}, {"measurement": "relative viability", "setting": "[2]; first compound 0.2 µM", "value": 0.554}, {"measurement": "relative viability", "setting": "[2]; first compound 2 µM", "value": 0.334}, {"measurement": "relative viability", "setting": "[2]; first compound 6.325 µM", "value": 0.487}, {"measurement": "relative viability", "setting": "[2]; first compound 20 µM", "value": 0.259}, {"measurement": "relative viability", "setting": "[3]; first compound 0.2 µM", "value": 0.964}, {"measurement": "relative viability", "setting": "[3]; first compound 0.6325 µM", "value": 1.1}, {"measurement": "relative viability", "setting": "[3]; first compound 2 µM", "value": 1.1}, {"measurement": "relative viability", "setting": "[3]; first compound 6.325 µM", "value": 1.02}, {"measurement": "relative viability", "setting": "[3]; first compound 20 µM", "value": 0.732}, {"measurement": "relative viability", "setting": "[4]; first compound 0.2 µM", "value": 0.854}, {"measurement": "relative viability", "setting": "[4]; first compound 0.6325 µM", "value": 0.839}, {"measurement": "relative viability", "setting": "[4]; first compound 2 µM", "value": 0.873}, {"measurement": "relative viability", "setting": "[4]; first compound 6.325 µM", "value": 0.728}, {"measurement": "relative viability", "setting": "[4]; first compound 20 µM", "value": 0.254}, {"measurement": "relative viability", "setting": "[5]; first compound 0.2 µM", "value": 0.544}, {"measurement": "relative viability", "setting": "[5]; first compound 0.6325 µM", "value": 0.565}, {"measurement": "relative viability", "setting": "[5]; first compound 2 µM", "value": 0.649}, {"measurement": "relative viability", "setting": "[5]; first compound 6.325 µM", "value": 0.349}, {"measurement": "relative viability", "setting": "[5]; first compound 20 µM", "value": 0.184}, {"measurement": "relative viability", "setting": "[6]; first compound 0.2 µM", "value": 1}, {"measurement": "relative viability", "setting": "[6]; first compound 0.6325 µM", "value": 1}, {"measurement": "relative viability", "setting": "[6]; first compound 2 µM", "value": 1.1}, {"measurement": "relative viability", "setting": "[6]; first compound 6.325 µM", "value": 0.909}, {"measurement": "relative viability", "setting": "[6]; first compound 20 µM", "value": 0.985}, {"measurement": "relative viability", "setting": "[7]; first compound 0.2 µM", "value": 0.953}, {"measurement": "relative viability", "setting": "[7]; first compound 0.6325 µM", "value": 0.937}, {"measurement": "relative viability", "setting": "[7]; first compound 2 µM", "value": 0.959}, {"measurement": "relative viability", "setting": "[7]; first compound 6.325 µM", "value": 0.799}, {"measurement": "relative viability", "setting": "[7]; first compound 20 µM", "value": 0.732}, {"measurement": "relative viability", "setting": "[8]; first compound 0.2 µM", "value": 0.971}, {"measurement": "relative viability", "setting": "[8]; first compound 0.6325 µM", "value": 0.919}, {"measurement": "relative viability", "setting": "[8]; first compound 2 µM", "value": 0.927}, {"measurement": "relative viability", "setting": "[8]; first compound 6.325 µM", "value": 0.307}, {"measurement": "relative viability", "setting": "[8]; first compound 20 µM", "value": 0.366}, {"measurement": "relative viability", "setting": "[9]; first compound 0.2 µM", "value": 0.973}, {"measurement": "relative viability", "setting": "[9]; first compound 0.6325 µM", "value": 0.953}, {"measurement": "relative viability", "setting": "[9]; first compound 2 µM", "value": 0.875}, {"measurement": "relative viability", "setting": "[9]; first compound 6.325 µM", "value": 0.677}, {"measurement": "relative viability", "setting": "[9]; first compound 20 µM", "value": 0.531}, {"measurement": "relative viability", "setting": "[10]; first compound 0.2 µM", "value": 0.806}, {"measurement": "relative viability", "setting": "[10]; first compound 0.6325 µM", "value": 0.732}, {"measurement": "relative viability", "setting": "[10]; first compound 2 µM", "value": 0.833}, {"measurement": "relative viability", "setting": "[10]; first compound 6.325 µM", "value": 0.655}, {"measurement": "relative viability", "setting": "[10]; first compound 20 µM", "value": 0.388}, {"measurement": "relative viability", "setting": "[11]; first compound 0.2 µM", "value": 0.552}, {"measurement": "relative viability", "setting": "[11]; first compound 0.6325 µM", "value": 0.483}, {"measurement": "relative viability", "setting": "[11]; first compound 2 µM", "value": 0.326}, {"measurement": "relative viability", "setting": "[11]; first compound 6.325 µM", "value": 0.425}, {"measurement": "relative viability", "setting": "[11]; first compound 20 µM", "value": 0.0362}, {"measurement": "relative viability", "setting": "[12]; first compound 0.2 µM", "value": 0.926}, {"measurement": "relative viability", "setting": "[12]; first compound 0.6325 µM", "value": 0.92}, {"measurement": "relative viability", "setting": "[12]; first compound 2 µM", "value": 0.958}, {"measurement": "relative viability", "setting": "[12]; first compound 6.325 µM", "value": 0.663}, {"measurement": "relative viability", "setting": "[12]; first compound 20 µM", "value": 0.238}, {"measurement": "relative viability", "setting": "[13]; first compound 0.2 µM", "value": 0.908}, {"measurement": "relative viability", "setting": "[13]; first compound 0.6325 µM", "value": 1.1}, {"measurement": "relative viability", "setting": "[13]; first compound 2 µM", "value": 0.871}, {"measurement": "relative viability", "setting": "[13]; first compound 6.325 µM", "value": 0.545}, {"measurement": "relative viability", "setting": "[13]; first compound 20 µM", "value": 0.482}, {"measurement": "relative viability", "setting": "[14]; first compound 0.2 µM", "value": 0.989}, {"measurement": "relative viability", "setting": "[14]; first compound 0.6325 µM", "value": 1}, {"measurement": "relative viability", "setting": "[14]; first compound 2 µM", "value": 1}, {"measurement": "relative viability", "setting": "[14]; first compound 6.325 µM", "value": 0.768}, {"measurement": "relative viability", "setting": "[14]; first compound 20 µM", "value": 0.451}, {"measurement": "relative viability", "setting": "[15]; first compound 0.2 µM", "value": 0.911}, {"measurement": "relative viability", "setting": "[15]; first compound 0.6325 µM", "value": 0.847}, {"measurement": "relative viability", "setting": "[15]; first compound 2 µM", "value": 0.774}, {"measurement": "relative viability", "setting": "[15]; first compound 6.325 µM", "value": 0.629}, {"measurement": "relative viability", "setting": "[15]; first compound 20 µM", "value": 0.435}, {"measurement": "relative viability", "setting": "[16]; first compound 0.2 µM", "value": 0.888}, {"measurement": "relative viability", "setting": "[16]; first compound 0.6325 µM", "value": 0.839}, {"measurement": "relative viability", "setting": "[16]; first compound 2 µM", "value": 0.864}, {"measurement": "relative viability", "setting": "[16]; first compound 6.325 µM", "value": 0.559}, {"measurement": "relative viability", "setting": "[16]; first compound 20 µM", "value": 0.631}, {"measurement": "relative viability", "setting": "[17]; first compound 0.2 µM", "value": 0.772}, {"measurement": "relative viability", "setting": "[17]; first compound 0.6325 µM", "value": 0.934}, {"measurement": "relative viability", "setting": "[17]; first compound 2 µM", "value": 0.838}, {"measurement": "relative viability", "setting": "[17]; first compound 6.325 µM", "value": 0.739}, {"measurement": "relative viability", "setting": "[17]; first compound 20 µM", "value": 0.766}, {"measurement": "relative viability", "setting": "[18]; first compound 0.2 µM", "value": 0.851}, {"measurement": "relative viability", "setting": "[18]; first compound 0.6325 µM", "value": 0.85}, {"measurement": "relative viability", "setting": "[18]; first compound 2 µM", "value": 0.761}, {"measurement": "relative viability", "setting": "[18]; first compound 6.325 µM", "value": 0.825}, {"measurement": "relative viability", "setting": "[18]; first compound 20 µM", "value": 0.847}, {"measurement": "relative viability", "setting": "[19]; first compound 0.2 µM", "value": 0.499}, {"measurement": "relative viability", "setting": "[19]; first compound 0.6325 µM", "value": 0.385}, {"measurement": "relative viability", "setting": "[19]; first compound 2 µM", "value": 0.34}, {"measurement": "relative viability", "setting": "[19]; first compound 6.325 µM", "value": 0.277}, {"measurement": "relative viability", "setting": "[19]; first compound 20 µM", "value": 0.21}, {"measurement": "relative viability", "setting": "[20]; first compound 0.2 µM", "value": 0.571}, {"measurement": "relative viability", "setting": "[20]; first compound 0.6325 µM", "value": 0.621}, {"measurement": "relative viability", "setting": "[20]; first compound 2 µM", "value": 0.657}, {"measurement": "relative viability", "setting": "[20]; first compound 6.325 µM", "value": 0.461}, {"measurement": "relative viability", "setting": "[20]; first compound 20 µM", "value": 0.372}, {"measurement": "relative viability", "setting": "[21]; first compound 0.2 µM", "value": 0.453}, {"measurement": "relative viability", "setting": "[21]; first compound 0.6325 µM", "value": 0.488}, {"measurement": "relative viability", "setting": "[21]; first compound 2 µM", "value": 0.61}, {"measurement": "relative viability", "setting": "[21]; first compound 6.325 µM", "value": 0.241}, {"measurement": "relative viability", "setting": "[21]; first compound 20 µM", "value": 0.22}, {"measurement": "relative viability", "setting": "[22]; first compound 0.2 µM", "value": 0.801}, {"measurement": "relative viability", "setting": "[22]; first compound 0.6325 µM", "value": 0.808}, {"measurement": "relative viability", "setting": "[22]; first compound 2 µM", "value": 0.86}, {"measurement": "relative viability", "setting": "[22]; first compound 6.325 µM", "value": 0.406}, {"measurement": "relative viability", "setting": "[22]; first compound 20 µM", "value": 0.12}]}
